≈ marks a conversion by molar mass, not a printed value.
Legend:
MCF7 = assay: Cytotoxicity against human MCF7 cells after 5 days by SRB assay; assay type: functional; settings: MCF7, 120 h
MDA-MB-468 = assay: Cytotoxicity against human MDA-MB-468 cells after 5 days by SRB assay; assay type: functional; settings: MDA-MB-468, 120 h
MDA-MB-231 = assay: Cytotoxicity against human MDA-MB-231 cells after 5 days by SRB assay; assay type: functional; settings: MDA-MB-231, 120 h
[1] = Cytotoxicity against human SKBR3 cells after 5 days by SRB assay; assay type: functional; settings: SK-BR-3, 120 h
[2] = target: Vascular endothelial growth factor receptor 2 (Homo sapiens, UniProt P35968); assay: Inhibition of KDR (unknown origin) by FRET-based homogeneous assay
Sequence of Vascular endothelial growth factor receptor 2 (P35968 whole entry): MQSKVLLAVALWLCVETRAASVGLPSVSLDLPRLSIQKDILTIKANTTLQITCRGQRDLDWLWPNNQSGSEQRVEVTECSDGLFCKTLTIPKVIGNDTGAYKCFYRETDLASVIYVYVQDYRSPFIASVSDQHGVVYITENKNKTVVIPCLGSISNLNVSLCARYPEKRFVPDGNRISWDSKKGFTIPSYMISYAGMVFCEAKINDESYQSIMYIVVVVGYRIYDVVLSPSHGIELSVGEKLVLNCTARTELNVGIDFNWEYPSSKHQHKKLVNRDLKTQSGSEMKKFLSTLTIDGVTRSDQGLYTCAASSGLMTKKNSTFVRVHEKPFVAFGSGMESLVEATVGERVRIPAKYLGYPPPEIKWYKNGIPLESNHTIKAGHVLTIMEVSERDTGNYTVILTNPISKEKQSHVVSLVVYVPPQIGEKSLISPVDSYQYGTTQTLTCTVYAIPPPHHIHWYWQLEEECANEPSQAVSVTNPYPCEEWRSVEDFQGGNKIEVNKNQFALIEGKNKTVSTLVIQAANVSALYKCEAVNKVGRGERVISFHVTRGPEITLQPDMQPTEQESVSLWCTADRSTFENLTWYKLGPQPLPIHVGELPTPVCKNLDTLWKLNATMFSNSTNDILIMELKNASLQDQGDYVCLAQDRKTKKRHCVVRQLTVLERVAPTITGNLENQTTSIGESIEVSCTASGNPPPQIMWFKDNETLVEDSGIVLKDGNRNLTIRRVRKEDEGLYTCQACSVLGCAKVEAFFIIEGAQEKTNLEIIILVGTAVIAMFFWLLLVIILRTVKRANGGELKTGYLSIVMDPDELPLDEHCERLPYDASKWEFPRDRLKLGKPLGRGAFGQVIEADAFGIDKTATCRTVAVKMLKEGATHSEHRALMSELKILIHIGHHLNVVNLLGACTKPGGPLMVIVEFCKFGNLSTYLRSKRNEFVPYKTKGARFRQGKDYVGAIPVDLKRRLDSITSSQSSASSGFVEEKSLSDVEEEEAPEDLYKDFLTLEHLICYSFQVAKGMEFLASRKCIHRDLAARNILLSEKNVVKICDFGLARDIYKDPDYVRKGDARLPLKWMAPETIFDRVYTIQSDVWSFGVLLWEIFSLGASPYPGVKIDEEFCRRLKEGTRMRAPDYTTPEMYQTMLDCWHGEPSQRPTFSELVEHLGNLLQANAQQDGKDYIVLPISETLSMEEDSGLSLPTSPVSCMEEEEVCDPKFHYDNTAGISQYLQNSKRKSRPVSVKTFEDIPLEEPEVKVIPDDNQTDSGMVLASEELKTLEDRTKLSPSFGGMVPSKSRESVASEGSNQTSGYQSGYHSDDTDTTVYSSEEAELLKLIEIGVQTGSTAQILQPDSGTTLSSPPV

Cytochrome P450 1A2 = target: T1, Cytochrome P450 1A2 (Homo sapiens, UniProt P05177); assay: Inhibition of CYP1A2 (unknown origin) using CEC substrate after 15 mins by fluorescence assay; assay type: ADME
T1 sequence (P05177 whole entry): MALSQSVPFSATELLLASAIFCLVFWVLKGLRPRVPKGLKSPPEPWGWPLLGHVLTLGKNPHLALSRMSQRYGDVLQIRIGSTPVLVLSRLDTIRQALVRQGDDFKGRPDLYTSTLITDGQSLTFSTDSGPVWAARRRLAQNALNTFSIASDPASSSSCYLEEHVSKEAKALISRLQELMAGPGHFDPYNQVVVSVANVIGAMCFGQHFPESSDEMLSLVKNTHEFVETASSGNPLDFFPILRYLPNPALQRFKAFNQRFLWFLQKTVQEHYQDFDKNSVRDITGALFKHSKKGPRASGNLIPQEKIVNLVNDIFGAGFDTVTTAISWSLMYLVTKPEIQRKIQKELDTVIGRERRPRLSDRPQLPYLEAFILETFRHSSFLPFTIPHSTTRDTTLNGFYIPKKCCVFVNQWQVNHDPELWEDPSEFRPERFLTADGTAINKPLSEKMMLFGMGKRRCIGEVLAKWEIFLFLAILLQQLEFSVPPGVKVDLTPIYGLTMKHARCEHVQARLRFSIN

Cytochrome P450 2C9 = Cytochrome P450 2C9 (Homo sapiens, UniProt P11712); assay: Inhibition of CYP2C9 (unknown origin) using MFC substrate after 45 mins by fluorescence assay; assay type: ADME
Sequence of Cytochrome P450 2C9 (P11712 whole entry): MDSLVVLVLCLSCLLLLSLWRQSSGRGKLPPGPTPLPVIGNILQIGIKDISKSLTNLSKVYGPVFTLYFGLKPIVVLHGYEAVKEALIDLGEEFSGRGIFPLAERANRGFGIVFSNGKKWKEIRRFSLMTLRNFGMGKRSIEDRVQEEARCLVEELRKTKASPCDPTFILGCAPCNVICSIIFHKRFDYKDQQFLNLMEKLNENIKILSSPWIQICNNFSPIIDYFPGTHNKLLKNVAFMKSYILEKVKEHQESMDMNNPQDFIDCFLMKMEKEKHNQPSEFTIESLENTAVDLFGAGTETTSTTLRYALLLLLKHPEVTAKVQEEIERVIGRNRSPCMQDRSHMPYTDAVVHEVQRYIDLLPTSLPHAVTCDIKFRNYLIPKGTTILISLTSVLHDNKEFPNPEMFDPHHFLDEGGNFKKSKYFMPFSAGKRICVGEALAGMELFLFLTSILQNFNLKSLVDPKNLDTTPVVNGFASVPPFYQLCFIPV

Cytochrome P450 2C19 = Cytochrome P450 2C19 (Homo sapiens, UniProt P33261); assay: Inhibition of CYP2C19 (unknown origin) using MFC substrate after 30 mins by fluorescence assay; assay type: ADME
Sequence of Cytochrome P450 2C19 (P33261 whole entry): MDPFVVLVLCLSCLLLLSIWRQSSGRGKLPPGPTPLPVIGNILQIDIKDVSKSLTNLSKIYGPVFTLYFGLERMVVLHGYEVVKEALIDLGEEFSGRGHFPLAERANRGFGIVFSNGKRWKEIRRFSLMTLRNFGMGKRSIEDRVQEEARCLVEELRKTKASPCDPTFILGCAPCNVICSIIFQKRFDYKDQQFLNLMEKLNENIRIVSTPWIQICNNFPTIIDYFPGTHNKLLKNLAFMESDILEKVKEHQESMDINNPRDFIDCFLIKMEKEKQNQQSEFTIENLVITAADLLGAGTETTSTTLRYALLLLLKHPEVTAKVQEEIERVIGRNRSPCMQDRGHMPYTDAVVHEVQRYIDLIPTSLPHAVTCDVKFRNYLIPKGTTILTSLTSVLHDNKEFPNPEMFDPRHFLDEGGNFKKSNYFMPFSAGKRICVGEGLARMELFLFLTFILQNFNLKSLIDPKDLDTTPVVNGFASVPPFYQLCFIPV

Cytochrome P450 2D6 = Cytochrome P450 2D6 (Homo sapiens, UniProt P10635); assay: Inhibition of CYP2D6 (unknown origin) using AMMC substrate after 45 mins by fluorescence assay; assay type: ADME
Sequence of Cytochrome P450 2D6 (P10635 whole entry): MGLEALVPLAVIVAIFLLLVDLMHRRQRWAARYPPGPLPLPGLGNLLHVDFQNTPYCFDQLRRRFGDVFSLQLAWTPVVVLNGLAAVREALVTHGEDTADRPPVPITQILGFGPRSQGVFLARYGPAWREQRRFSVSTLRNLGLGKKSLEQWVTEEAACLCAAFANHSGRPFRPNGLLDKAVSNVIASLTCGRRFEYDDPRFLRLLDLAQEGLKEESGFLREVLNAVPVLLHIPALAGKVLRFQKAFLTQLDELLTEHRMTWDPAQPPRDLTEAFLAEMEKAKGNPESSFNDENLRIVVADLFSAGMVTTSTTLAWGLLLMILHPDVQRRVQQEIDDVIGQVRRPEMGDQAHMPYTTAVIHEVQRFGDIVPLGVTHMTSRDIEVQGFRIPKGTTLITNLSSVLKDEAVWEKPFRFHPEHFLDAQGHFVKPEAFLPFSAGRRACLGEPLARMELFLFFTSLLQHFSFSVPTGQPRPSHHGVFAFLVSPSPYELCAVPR

Cytochrome P450 3A4 = Cytochrome P450 3A4 (Homo sapiens, UniProt P08684); assay: Inhibition of CYP3A4 (unknown origin) using BFC substrate after 30 mins by fluorescence assay; assay type: ADME
Sequence of Cytochrome P450 3A4 (P08684 whole entry): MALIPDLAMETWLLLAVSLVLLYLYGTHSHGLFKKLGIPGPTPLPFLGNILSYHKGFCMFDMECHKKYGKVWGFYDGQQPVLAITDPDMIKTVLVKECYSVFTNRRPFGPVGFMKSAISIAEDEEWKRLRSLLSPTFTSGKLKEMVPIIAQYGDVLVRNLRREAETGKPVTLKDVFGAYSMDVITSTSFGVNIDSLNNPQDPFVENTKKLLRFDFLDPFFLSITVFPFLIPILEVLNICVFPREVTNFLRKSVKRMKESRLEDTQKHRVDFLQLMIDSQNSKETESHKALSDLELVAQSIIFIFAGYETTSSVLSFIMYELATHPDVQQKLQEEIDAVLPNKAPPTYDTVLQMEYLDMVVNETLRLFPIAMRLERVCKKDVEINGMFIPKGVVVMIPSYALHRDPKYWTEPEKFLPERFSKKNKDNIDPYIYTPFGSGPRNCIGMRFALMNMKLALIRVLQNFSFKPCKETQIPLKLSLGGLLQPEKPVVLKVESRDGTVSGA

[3] = Cmax in SCID mouse at 25 mg/kg, po by LCMS/MS method; assay type: ADME, organism-based; set-up: dose 25 mg/kg, route oral; settings: in vivo
[4] = AUC in SCID mouse at 25 mg/kg, po by LCMS/MS method; assay type: ADME, organism-based; set-up: dose 25 mg/kg, route oral; settings: plasma
[5] = target: T2, Receptor-type tyrosine-protein kinase FLT3 (Homo sapiens, UniProt P36888); assay: Inhibition of FLT3 (unknown origin) by FRET-based homogeneous assay
T2 sequence (P36888 whole entry): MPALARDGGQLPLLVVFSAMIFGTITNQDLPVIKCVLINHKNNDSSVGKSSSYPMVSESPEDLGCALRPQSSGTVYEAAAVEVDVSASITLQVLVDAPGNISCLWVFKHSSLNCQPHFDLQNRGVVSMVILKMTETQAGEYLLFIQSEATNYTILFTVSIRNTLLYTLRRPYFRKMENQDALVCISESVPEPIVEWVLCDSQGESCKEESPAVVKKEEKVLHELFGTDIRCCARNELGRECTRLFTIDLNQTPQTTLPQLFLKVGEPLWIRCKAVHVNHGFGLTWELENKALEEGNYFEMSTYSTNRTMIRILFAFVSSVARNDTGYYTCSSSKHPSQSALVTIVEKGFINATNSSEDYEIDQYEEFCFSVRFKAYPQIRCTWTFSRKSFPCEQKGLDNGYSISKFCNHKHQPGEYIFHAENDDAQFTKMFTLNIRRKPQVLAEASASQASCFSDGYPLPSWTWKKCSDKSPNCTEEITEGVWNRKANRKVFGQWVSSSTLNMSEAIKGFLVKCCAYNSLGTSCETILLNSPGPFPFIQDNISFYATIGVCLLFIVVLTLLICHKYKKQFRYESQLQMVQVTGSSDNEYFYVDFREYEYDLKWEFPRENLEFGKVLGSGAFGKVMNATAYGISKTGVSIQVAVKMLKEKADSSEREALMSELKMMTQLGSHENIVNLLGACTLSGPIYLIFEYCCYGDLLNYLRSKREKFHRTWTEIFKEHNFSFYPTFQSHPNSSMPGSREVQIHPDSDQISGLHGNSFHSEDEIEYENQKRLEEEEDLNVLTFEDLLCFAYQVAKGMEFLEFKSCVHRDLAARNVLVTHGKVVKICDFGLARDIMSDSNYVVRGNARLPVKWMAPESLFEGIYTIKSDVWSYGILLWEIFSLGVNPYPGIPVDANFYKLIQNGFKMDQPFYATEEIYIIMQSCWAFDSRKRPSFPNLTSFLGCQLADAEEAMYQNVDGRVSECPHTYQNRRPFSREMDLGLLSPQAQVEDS

[6] = Aqueous solubility at pH 7.4; assay type: physicochemical; settings: buffer
[7] = Protein binding in plasma (unknown origin); assay type: ADME, cell-free; settings: read-out: PPB (converted)
[8] = Half life in mouse liver microsomes at 1 uM in presence of NADPH by LC-MS method; assay type: ADME
[9] = Half life in human liver microsomes at 1 uM in presence of NADPH by LC-MS method; assay type: ADME
[10] = Cmax in SCID mouse at 50 mg/kg, ip after 8 hrs by LCMS/MS method; assay type: ADME, organism-based; set-up: dose 50 mg/kg, route intraperitoneal; settings: in vivo
[11] = AUC in SCID mouse at 50 mg/kg, ip after 8 hrs by LCMS/MS method; assay type: ADME, organism-based; set-up: time < 8 hr, dose 50 mg/kg, route intraperitoneal; settings: plasma

Row | SMILES | IC50 [2] | IC50 (Cytochrome P450 1A2) | IC50 (Cytochrome P450 2C9) | IC50 (Cytochrome P450 2C19) | IC50 (Cytochrome P450 2D6) | IC50 (Cytochrome P450 3A4) | Cmax [3] | AUC [4] | IC50 [5] | solubility [6] | fraction unbound [7] | half-life at 1 µM [8] | half-life at 1 µM [9] | Cmax [10] | AUC at 8 h [11] | GI50 (MCF7) | GI50 (MDA-MB-468) | GI50 (MDA-MB-231) | GI50 [1]
1 | O=C1Nc2ccccc2[C@]12C[C@H]2c1ccc2c(/C=C/c3ccc(CN4CCCCC4)nc3)n[nH]c2c1 (relative stereo) |  |  |  |  |  |  |  |  |  |  |  |  |  |  |  | 0.01 nM | 0.4 nM | 35800 nM | 3400 nM
2 | O=C1Nc2ccccc2[C@]12C[C@H]2c1ccc2c(/C=C/c3cccnc3)n[nH]c2c1 (relative stereo) |  | 140 nM | 320 nM | 110 nM | > 1000 nM | > 1000 nM | 37 ng/mL | 93 ng·h/mL |  |  |  |  |  |  |  | 3600 nM | 9 nM | 50000 nM | 14700 nM
3 | O=C1Nc2ccccc2[C@]12C[C@H]2c1ccc2cn[nH]c2c1 (relative stereo) | > 10000 nM | > 10000 nM | > 10000 nM | 10000 nM | > 10000 nM | > 10000 nM |  |  | 3200 nM | 8 µg/mL (≈ 29.1 µM) | 0.17 | 49 min | > 60 min | 1200 ng/mL | 1620 ng·h/mL | 16000 nM | 14000 nM |  | 
4 | CNC(=O)c1ccccc1Sc1ccc2c(/C=C/c3ccccn3)n[nH]c2c1 [AXITINIB] |  |  |  |  |  |  |  |  |  |  |  |  |  |  |  | 2300 nM | 2800 nM |  | 4600 nM
5 | O=C1Nc2ccccc2[C@]12C[C@H]2c1ccc2c(/C=C/c3ccc(CN4CCCC4)cc3)n[nH]c2c1 (relative stereo) |  |  |  |  |  |  |  |  |  |  |  |  |  |  |  | 50 nM | < 10 nM | 1900 nM | 4100 nM
6 | COc1ccc2c(c1)[C@]1(C[C@H]1c1ccc3c(/C=C/c4ccc(CN5CCCCC5)nc4)n[nH]c3c1)C(=O)N2 (relative stereo) |  |  | 1400 nM | 600 nM |  |  | 290 ng/mL | 740 ng·h/mL |  |  |  |  |  |  |  | 0.01 nM | 0.02 nM | 3900 nM | 9200 nM
7 | CN(C)Cc1ccc(/C=C/c2n[nH]c3cc([C@@H]4C[C@@]45C(=O)Nc4ccc(F)cc45)ccc23)cc1 (relative stereo) |  |  |  |  |  |  |  |  |  |  |  |  |  |  |  | 100 nM | 10 nM | 550 nM | 2200 nM

Second part, led by results:

Row | IC50 [2] | IC50 (Cytochrome P450 1A2) | IC50 (Cytochrome P450 2C9) | IC50 (Cytochrome P450 2C19) | IC50 (Cytochrome P450 2D6) | IC50 (Cytochrome P450 3A4) | Cmax [3] | AUC [4] | IC50 [5] | solubility [6] | fraction unbound [7] | half-life at 1 µM [8] | half-life at 1 µM [9] | Cmax [10] | AUC at 8 h [11] | SMILES | GI50 (MCF7) | GI50 (MDA-MB-468) | GI50 (MDA-MB-231) | GI50 [1]
8 | 1400 nM | > 10000 nM | 1400 nM | 1800 nM | > 10000 nM | > 1000 nM | 1800 ng/mL | 4300 ng·h/mL |  |  |  |  |  |  |  | O=C1Nc2ccccc2[C@]12C[C@H]2c1ccc2c(/C=C/c3ccc(CN4CCOCC4)cc3)n[nH]c2c1 (relative stereo) | 10 nM | 10 nM | < 10 nM | 11300 nM
9 | 24000 nM | > 10000 nM | 1400 nM | 2100 nM | > 1000 nM | > 1000 nM | 1700 ng/mL | 4900 ng·h/mL |  |  |  |  |  |  |  | COc1ccc2c(c1)[C@]1(C[C@H]1c1ccc3c(/C=C/c4ccc(CN5CCOCC5)cc4)n[nH]c3c1)C(=O)N2 (relative stereo) | < 10 nM | < 10 nM | < 10 nM | 13800 nM
10 | 120 nM | > 1000 nM | > 1000 nM | > 1000 nM | > 10000 nM | > 10000 nM | 190 ng/mL | 580 ng·h/mL | 120 nM |  |  |  |  |  |  | CN1CCN(Cc2ccc(/C=C/c3n[nH]c4cc([C@@H]5C[C@@]56C(=O)Nc5ccccc56)ccc34)cc2)CC1 (relative stereo) | 10 nM | 10 nM | 2500 nM | 6000 nM
